Measurements: a melting point compilation (Tetko et al.; mined from patent text by program, amines drawn as free bases though some values may be those of a salt)

Row | Compound | melting point
1 | CCNC(=O)c1c[nH]c2ncc(-c3nn(C)c4cc(Cl)ccc34)nc12 | 373 to 377 °C
2 | Cc1nc(-c2[nH]c3ccccc3c2C=O)no1 | 228 to 230 °C
3 | COc1ccc(C2=NC(NC(=O)CCc3ccc(Cl)cc3Cl)C(=O)N(C)c3ccccc32)cc1 (stereo not drawn) | 188 to 189 °C
4 | COc1cccc(C(=O)C=C(SC)SC)c1 | 119 to 121 °C
5 | Cc1ccc(S(=O)(=O)OCC2Cc3cccc(-c4ccccc4Cl)c3O2)cc1 (stereo not drawn) | 100 to 103 °C
6 | COC(=O)c1ccc2[nH]c(=O)n(CCCCN3CC=C(c4ccccc4)CC3)c(=O)c2c1 | 138 °C
7 | Cc1ccc(-c2nc(Cc3cc4cc(CCl)ccc4o3)c(C)o2)cc1 | 145 to 146 °C
8 | N#Cc1c(Cl)cccc1CBr | 83 °C
9 | OC1=Cc2ccccc2C=Cc2cc(Br)ccc21 | 148 to 151 °C
10 | CCC(OC1OC(COC(C)=O)C(OC(C)=O)C(OC(C)=O)C1OC(C)=O)C(=O)O (stereo not drawn) | 98 to 100 °C
11 | CCn1c(N)nc2cc(CN3CCN(C(c4ccccc4)c4ccccc4)CC3)ccc21 | 214 °C
12 | Cc1c(C(=O)C(N)=O)c2c(OCC(=O)O)cccc2n1Cc1ccccc1 | 218 to 220 °C
13 | CCC(Oc1ccc2oc3cc(Cl)ccc3c2c1)C(=O)O (stereo not drawn) | 143 to 145 °C
14 | Nc1cc(F)ccc1NC(c1ccccc1)c1ccccc1 | 120 °C
15 | COc1ccc(CCN2CCCC(CO)C2)cc1OC (stereo not drawn) | 87.5 to 89 °C
16 | O=Cc1cn(CCCCO)c2ncccc12 | 90 °C
17 | Cc1ccc2c(c1)Cn1nnnc1C(=S)N2 | 293 to 296 °C
18 | Cc1nc2c(C)cccn2c(=O)c1CCN1CC=C(c2c[nH]c3ccc(F)cc23)CC1 | 229 to 230 °C
19 | CCCCCCCCCCCCCCCCCCNC(=O)SCC(CO)OC (stereo not drawn) | 62 to 63 °C
20 | NC(Cc1ccccc1)C(=O)NC1N=C(c2ccccc2)c2ccccc2NC1=O (stereo not drawn) | 208 to 210 °C
21 | OC1(c2cn(-c3ccc(Br)cc3)nn2)CN2CCC1CC2 (stereo not drawn) | 214 °C
22 | Cc1cn(S(=O)(=O)c2cccc(C(C)(C)C)c2)c2ccc(C(F)(F)F)cc12 | 90 to 108 °C

Row | Compound | melting point
23 | CC(C)OC(=O)C1=C(COCCN2C(=O)c3ccccc3C2=O)Nc2c(C#N)cnn2C1c1cccc(F)c1F (stereo not drawn) | 176 to 177 °C
24 | CC(C)(NC(=O)CCc1nccn1Cc1ccccc1)c1ccc(Cl)cc1 | 128 to 129 °C
25 | CC1=C(O)C(=O)C(C)(CO)O1 (stereo not drawn) | 124 to 125 °C
26 | O=C(c1nnc(-c2ccccc2)o1)N1CC(Oc2ccc(CN3CC(C(F)F)C3)cc2)C1 | 147 °C
27 | COc1cccc(C(O)CN(C)Cc2sc3c(=O)c(C(=O)NCc4ccc(Cl)cc4)cn(C)c3c2COCC[Si](C)(C)C)c1 (stereo not drawn) | 150 to 152 °C
28 | CN(Cc1ccc(C(=O)Cn2cnc3cc(-c4ccc(Cl)cc4)sc3c2=O)cc1)C(=O)C(F)(F)F | 235 to 238 °C
29 | Cc1cc(C)c(CCCC(C)(C)O)c(O)c1 | 128 °C
30 | Nc1ccc(F)c(N2C(=O)C3=C(CCCC3)C2=O)c1 | 134 to 136 °C
31 | CCOC(=O)c1cc2c(C)c(-c3cccc(Cl)c3)c(=O)oc2nc1C(=O)OCC | 170 to 172 °C
32 | CC(C)(C)c1ccc(Sc2ccsc2CN(O)C(N)=O)cc1 | 144 to 146 °C
33 | O=C1NC(C(Cl)(Cl)Cl)Oc2ccccc21 (stereo not drawn) | 175 to 177 °C
34 | CCCCCCN(Cc1ccc2ccccc2c1)c1c(N[C@@H](Cc2ccccc2)C(=O)O)c(=O)c1=O | 62 to 70 °C
35 | COc1ccc(N2CC(=O)c3ccccc3S2)cc1O | 228 to 232 °C
36 | Oc1ccc(O)c(-c2nc3cc(O)ccc3o2)c1 | 309 to 311 °C
37 | CC(C)c1c(CO)c(-c2ccc(F)cc2)nn1-c1ccccc1 | 144 to 147 °C
38 | CC(C)C(=O)Nc1ccc(OCc2ccccc2)c(Br)c1N(C)C | 197 to 198 °C
39 | CC(C)(Cc1ccccc1)C(NC(=O)c1ccc(Cl)cc1)Nc1c(Nc2cccnc2)c(=O)c1=O (stereo not drawn) | 223 to 224 °C
40 | CC(C)Oc1cc(CCC(=O)NS(=O)(=O)C2CCCCC2)n(Cc2ccc(Cl)cc2Cl)n1 | 137 to 138 °C
41 | O=Cc1ccc(Sc2nc3cc(Cl)c(Cl)cc3[nH]2)o1 | 170 °C
42 | CCN1C(=O)Cc2cc3occc3cc21 | 112 to 113 °C
43 | CN1Cc2ccccc2P1(=O)c1ccccc1 (stereo not drawn) | 129 to 130 °C

Results, then the compound that gave them:

Row | melting point | Compound
44 | 70 to 80 °C | O=C(c1ccc(F)cc1)N1CCN(CC(O)Cn2c3ccccc3c3ccccc32)CC1 (stereo not drawn)
45 | 318 °C | O=c1c2cc(O)c(O)cc2c2cc(O)c(O)cc2n1Cc1ccc(Cl)c(Cl)c1
46 | 131 °C | Cc1cc(Cn2[nH]c(N)cc2=O)ccc1Cl
47 | 148 to 149 °C | COc1ccc2[nH]ncc2c1C
48 | 225 to 226 °C | Cc1nc(-n2ccc3c(OCc4ccccc4)cccc3c2=O)sc1C(=O)NCc1ccccc1
49 | 58 to 61 °C | CC(C)(C)C1=CC(O)(C(F)(F)F)C(=O)C(C(C)(C)C)=C1 (stereo not drawn)
50 | 102 °C | CC(C)C(c1ccc(N)cc1)c1cccnc1 (stereo not drawn)
51 | 156 °C | CCOC(=O)CCC(NC(=O)c1ccc(NC2CCc3cc4nc(C)n(COC(=O)C(C)(C)C)c(=O)c4cc32)cc1)C(=O)OCC (mixture of isomers)
52 | 102 to 108 °C | CCCCc1ccc(-c2ccc3c(c2)CC[C@H]2N(C)C(=O)CC[C@]32C)cc1
53 | 64 °C | CNC(=O)[C@@H]1C[C@H](OC)CN1S(=O)(=O)c1ccc(Cl)c(COc2cccc3c(-n4ccnc4)cc(C)nc23)c1Cl
54 | 178 to 180 °C | CS(=O)(=O)N1CCN(C(=N)Nc2ccccc2-c2ccccc2)CC1
55 | 218 to 220 °C | CC(C)C(=O)NCc1cccc2c1C(=O)N(C1CCC(=O)NC1=O)C2=O (stereo not drawn)
56 | 143 to 144 °C | Cc1nc(N2CC(Cc3ccccc3)CC2=O)sc1C(=O)NCc1ccccc1 (stereo not drawn)
57 | 196 to 198 °C | O=C1C2=C(CCCC2)C(=O)N1c1cccc(O)c1
58 | 136 to 138 °C | O=C(NCCN(C1CC1)S(=O)(=O)c1ccccc1[N+](=O)[O-])N1CCN2C(=O)OC(c3ccccc3)(c3ccccc3)C2C1 (stereo not drawn)
59 | 77.5 to 79 °C | CN1C(=O)C(c2ccc(Cl)cc2)SC1c1cccnc1 (stereo not drawn)
60 | 181 to 183 °C | O=c1c(Cl)c(C(F)(F)F)nc(Nc2cc(C(F)(F)F)ccc2C(F)(F)F)n1C1CCCCC1
61 | 184 to 186 °C | Cc1nc(N2CCN(Cc3ccc(OC(F)(F)F)cc3)C2=O)sc1C(=O)NCC1CC1
62 | 88 to 91 °C | CCCCCc1cc(N)cc(O)c1
63 | 174 °C | CCOC(=O)c1cn(-c2nonc2C)c2cc(F)c(F)c(C)c2c1=O
64 | 75 to 79 °C | CCc1nc(C(=O)NCC(C=C(C)C(CC)[N+](=O)[O-])=NO)c[nH]1 (stereo not drawn)
65 | 221 to 222 °C | COc1ccc(C(=O)Nc2ccccc2)cc1Nc1ccc(C2=NC(C)(C)CO2)cc1
66 | 241 to 242 °C | Cc1ccc(Nc2c(N)cc(C(=O)O)cc2S(N)(=O)=O)c(C)c1
67 | 77 to 79 °C | Oc1cccc(F)c1OC(COCc1ccccc1)C(Cl)COCc1ccccc1 (stereo not drawn)
68 | 274 to 275 °C | CC(C)(C)COc1ccc(N(CC(=O)O)C(=O)c2cnn(-c3ccc(F)cc3)c2)cc1C#N
69 | 123 to 125 °C | Clc1ccc(-c2c(Cl)nc(Cl)nc2-c2ccccc2)cc1
70 | 138 to 140 °C | CCOC(=O)C1=C(C)NC(C)=C(C(=O)OCC)C1c1ccccc1C=CC(=O)OC
71 | 59 °C | CCOC(=O)C(C)(C)CCCCCOc1ccc(NC(=O)CCCCCn2ccnc2)cc1

Row | melting point | Compound
72 | 171 to 172 °C | COc1ccc(-c2cnn3c(N)c(-c4cccc(Cl)c4)c(C)nc23)cc1
73 | 124 to 126 °C | CN(C)c1cccc(-c2ccc3nnn(Cc4ccc5ncccc5c4)c3n2)c1
74 | 184 to 186 °C | COc1cc2cc3c(Nc4ccc(Sc5nccn5C)c(Cl)c4)c(C#N)cnc3cc2cc1OCCN1CCN(C)CC1
75 | 120 to 122 °C | C[Si](C)(C)c1sc(C=O)cc1Oc1ccccc1
76 | 134 °C | COc1ccccc1CNc1ccc2cc(Nc3cccc(C)n3)ccc2n1
77 | 170 to 190 °C | COc1c(C)c2c(c(NC(=O)N(C)C)c1C/C=C(\C)CCC(=O)O)C(=O)OC2
78 | 147 to 148 °C | Cc1nc(N2CCN(Cc3ccccc3)C2=O)sc1C(=O)NCc1ccc(F)cc1
79 | 64 °C | O=S(=O)(Cl)c1cncc(Br)c1
80 | 158 to 159 °C | CCC(=C(c1ccccc1)c1ccc(C=Cc2noc(C)n2)cc1)c1ccccc1
81 | 65 to 67 °C | CCCC(C)(C)c1nsc(N=CN(C)C)c1C#N
82 | 81 to 82 °C | CC(=O)CSC1=CC(=O)CC(c2ccccc2Cl)C1 (stereo not drawn)
83 | 86.5 °C | CC(C)c1nc(N(C)S(C)(=O)=O)nc(-c2ccc(F)cc2)c1/C=C/C=O
84 | 164 to 166 °C | O=C(O)CCc1ccc(CNC(=O)OCC2c3ccccc3-c3ccccc32)cc1
85 | 124 °C | CC(=O)OCC1OC(O)(c2ccc(Cl)cc2)C(OC(C)=O)C(OC(C)=O)C1OC(C)=O (stereo not drawn)
86 | 183 to 185 °C | CS(=O)(=O)c1ccc(N2CCC(=O)CC2)cc1
87 | 85 to 87 °C | CC(C(=O)OC1(C)CCCCC1)c1ccc(N)cc1 (stereo not drawn)
88 | 199 to 201 °C | CON1C(=O)CC2(CCN(C(=O)c3cccnc3)CC2)C1=O
89 | 30 to 32 °C | CCCCCCCCCCCCC1N(C)c2cccc3cccc(c23)N1C
90 | 141 to 143 °C | CC(C)CS(=O)(=O)c1ccc(F)c(C#Cc2cc(Cl)ccc2OCC(=O)O)c1
91 | 139 to 140 °C | CSc1ccc(N(C)S(=O)(=O)c2ccc(C)cc2)c(C#N)c1
92 | 144 to 146 °C | COc1ccc(-c2ocnc2-c2cc(OC)c(O)c(OC)c2)cc1O
93 | 124 to 128 °C | COc1cc(OC)c(N2CCCC2)cc1/C=C/C(=O)c1ccc(S(=O)(=O)Nc2ccccn2)cc1
94 | 79.4 to 81 °C | COC(=O)CC[C@@H](Cc1cn(CCCc2ccccc2)c2ccccc12)NC(=O)CCCCCCc1ccccc1
95 | 225 °C | Cc1cc(Cl)c([N+](=O)[O-])c(=O)[nH]1
96 | 172 to 175 °C | CSC(=NC(=O)c1ccccc1)N1CC=C(c2cccc(C(F)(F)F)c2)n2ncc(C(N)=O)c21
97 | 239 to 240 °C | Cc1nnc(-c2nsc3ccc([N+](=O)[O-])cc23)s1
98 | 114 °C | O=C(OCc1ccccc1)ON1C(=O)CC2(CCN(C(=O)OCc3ccccc3)CC2)C1=O
